# According to ChEMBL document CHEMBL1149799, “Bioactive peroxides as potential therapeutic agents” (Eur J Med Chem, 2008):
# pIC50: −log10 of the molar value.
# What was measured:
# PC-3 = test: Cytotoxicity against human PC3 cells; format: functional, cell-based
# [1] = Cytotoxicity against human HERP3B cells; format: functional
# [2] = Cytotoxicity against mouse Ehrlich Ascites carcinoma by clonogenic assay; format: functional
# [3] = Cytotoxicity against human CFUGM; format: functional; settings: CFU-GM
# [4] = Cytotoxicity against mouse Ehrlich Ascites carcinoma by […] assay; format: functional
# KB = test: Cytotoxicity against human KB cells; format: functional, cell-based; settings: Homo sapiens, KB; read-out: ED50 (the source's name)
# P388 = test: Cytotoxicity against mouse P388 cells; format: functional, cell-based; settings: Mus musculus, P388; read-out: ED50 (the source's name)
# A549 = test: Cytotoxicity against human A549 cells; format: functional, cell-based; settings: Homo sapiens, A549
# [5] = Cytotoxicity against human […] cells; format: functional; settings: read-out: ED50 (the source's name)
# NCI-H460 = test: Cytotoxicity against human NCI-H460 cells; format: functional, cell-based
# DU-145 = test: Cytotoxicity against human DU145 cells; format: functional, cell-based
# SF-268 = test: Cytotoxicity against human SF268 cells; format: functional, cell-based
# MCF7 = test: Cytotoxicity against human MCF7 cells; format: functional, cell-based
# KM-20L2 = test: Cytotoxicity against human KM20L2 cells; format: functional
# BXPC-3 = test: Cytotoxicity against human BXPC3 cells; format: functional
# T98G = test: Cytotoxicity against human T98G cells; format: functional, cell-based
# [6] = Cytotoxicity against human H116 cells; format: functional, cell-based
# PSN1 = test: Cytotoxicity against human PSN1 cells; format: functional, cell-based
# SK-BR-3 = test: Cytotoxicity against human SKBR3 cells; format: functional, cell-based
# Plasmodium falciparum = test: Antimalarial activity against Plasmodium falciparum W2; format: functional, organism-based
# [7] = Cytotoxicity against human P833 cells; format: functional, cell-based
smiles,measurement,setting,value
CC(=O)O[C@H]1C(=O)[C@@]2(C)[C@H]([C@H](OC(=O)c3ccccc3)[C@]3(O)C[C@H](OC(=O)[C@H](O)[C@@H](NC(=O)c4ccccc4)c4ccccc4)C(C)=C1C3(C)C)[C@]1(OC(C)=O)CO[C@@H]1C[C@@H]2O [PACLITAXEL],Activity,PC-3,80
same,Activity,[1],85
C=C1C(=O)O[C@@H]2O[C@@]3(C)CC[C@H]4[C@H](C)CC[C@@H]1[C@@]24OO3,pIC50,[2],5.00
same,pIC50,[3],5.77
same,pIC50,[4],4.95
C=CC(C[C@@H](C)[C@H]1CC[C@H]2[C@@H]3CC=C4C[C@@H](O)CC[C@]4(C)[C@H]3CC[C@]12C)(OO)C(C)C (stereo partly drawn),EC50,KB,1.8 µg/mL
same,EC50,P388,0.3 µg/mL
same,EC50,A549; read-out: ED50 (the source's name),7.1 µg/mL
same,EC50,[5],5.9 µg/mL
CC/C(=C\[C@@]1(CC)C[C@H](CC)[C@H](CC(=O)OC)OO1)[C@@H]1O[C@@H]1CC [PLAKORSTATIN 2],GI50,NCI-H460,>10
same,GI50,DU-145,1.7
same,EC50,P388,0.91 µg/mL
same,GI50,SF-268,1.6
same,GI50,MCF7,3.8
same,GI50,KM-20L2,6.7
same,GI50,BXPC-3,6.4
CC(C)(O)C1=C[C@@]23CCC4C(C)(C)CCC[C@]4(C)[C@H]2C[C@H]1OO3 (stereo partly drawn),IC50,T98G,> 5 µg/mL
same,IC50,[6],> 5 µg/mL
same,IC50,A549,> 5 µg/mL
same,IC50,PSN1,> 5 µg/mL
same,IC50,SK-BR-3,> 5 µg/mL
CCC/C=C/[C@]1(CC)C[C@H](CC)[C@H](CC(=O)OC)OO1 [PLAKORTIDE K],IC50,Plasmodium falciparum,0.57 µg/mL
CC(C)(OO)C1=C[C@@]23CCC4C(C)(C)CCC[C@]4(C)[C@H]2C[C@H]1OO3 (stereo partly drawn),IC50,T98G,> 5 µg/mL
same,IC50,[6],2.5 µg/mL
same,IC50,A549,5 µg/mL
same,IC50,PSN1,5 µg/mL
same,IC50,SK-BR-3,> 5 µg/mL
CC/C=C/[C@H](CC)C[C@]1(CC)C=C(CC)[C@H](CC(=O)O)OO1 [HATERUMADIOXIN A],IC50,[7],0.011 µg/mL
